Measurements published in patent US20220241409A1, “WATER SOLUBLE ADJUVANT AND COMPOSITION CONTAINING SAME” (Sumitomo Dainippon Pharma Co., Ltd., priority 2019, published 2022).

Key:
Antigen-Specific CTL = assay: Immune response of antigen-specific CTL for peptide and tumor cell, vaccine b (Test 12); assay type: in vivo, mouse
Procedure: Vaccine b prepared like Test 8 was injected to a HLA-A*02:01 transgenic mouse intradermally at the tail base area in an amount for administering 300 μg of Compound of formula 4 per body and 225 μg of Peptide SEQ ID No. 3 per body. Or, in the step of preparing vaccine b, the compound prepared in Example 2 was added to the diluted peptide solution to prepare a vaccine, and the prepared vaccine was injected to a HLA-A*02:01 transgenic mouse intradermally at the tail base area in an amount for administering 300 μg of Compound of formula 4 per body, 225 μg of Peptide SEQ ID No. 3 per body, and 325 ng of the compound prepared in Example 2 per body. One week later, the mice were sacrificed with CO2 gas, and then spleens removed from the mice. A splenocyte suspension was prepared from the spleens with CTM. Like Test 6, Peptide (SEQ ID No. 1) was added to the splenocyte-containing ELISPOT plate, and the plate was incubated overnight at 37° C. under an atmosphere of 5% CO2 to re-stimulate the peptide in vitro. Then, after removal of the supernatant from the wells, stained spots on the ELISPOT plate were counted. […] The concentration of mouse IFN-γ in the culture supernatant was measured with an ELISA kit.

[1] = system: HLA-A*02:01 transgenic mouse; assay: Induction of antigen-specific effector memory CTL, flow cytometry (Test 14); assay type: in vivo; conditions: twice; for induction of antigen peptide-specific effector memory CTL (CD8+ tetramer+ CD127+ CD62L-): 325 ng per body in vaccine b compared with the vaccine without compound
Procedure: The activity of a vaccine comprising the compounds prepared in Examples 2 and 3 for inducing effector memory CTL was evaluated through the cell surface antigen expression analysis of CTL by flow cytometry.
Specifically, vaccine a prepared like Test 6 was injected to a HLA-A*02:01 transgenic mouse intradermally at the tail base area in an amount for administering 300 μg of Compound of formula 4 per body and 225 μg of Peptide SEQ ID No. 3 per body. The administrations were done twice, which had one week interval. Or, a vaccine prepared by adding the compound prepared in Example 3 to vaccine a was injected to the mouse intradermally at the tail base area in an amount for administering 300 μg of Compound of formula 4 per body, 225 μg of Peptide SEQ ID No. 3 per body, and 32.5 ng of the compound prepared in Example 3 per body. The administrations were done twice, which had one week interval. Or, vaccine b prepared like Test 8 was injected to the mouse intradermally at the tail base area in an amount for administering 300 μg of Compound of formula 4 per body and 225 μg of Peptide SEQ ID No. 3 per body. Or a vaccine prepared by adding the compound prepared in Example 3 to vaccine b was injected to the mouse intradermally at the tail base area in an amount for administering 300 μg of Compound of formula 4 per body, 225 μg of Peptide SEQ ID No. 3 per body, and 325 ng of the compound prepared in Example 3 per body. Or a vaccine prepared by adding the compound prepared in Example 2 to vaccine b was injected to the mouse intradermally at the tail base area in an amount for administering 300 μg of Compound of formula 4 per body, 225 μg of Peptide SEQ ID No. 3 per body, and 325 ng of the compound prepared in Example 2 per body. […] 1, a PE-Cy7-labeled anti-CD127 antibody, and a PerCP-Cy5.5-labeled anti-CD62L antibody, and analyzed for peptide-specific effector memory CTLs with a flow cytometer. The ratio of CD8-positive tetramer-positive CD127-positive CD62L-negative fraction in the lymphocyte fraction was calculated as peptide-specific effector memory CTL.

[2] = system: HLA-A*02:01/HLA-DRB1*01:01 transgenic mouse; assay: In vivo adjuvant activity, helper T-cell induction with vaccine d, IFNγ ELISPOT (Test 10); conditions: 3.25 ng per body added to vaccine d versus no compound; twice, one week interval
Procedure: The in vivo adjuvant activity of the compound prepared in Example 3 was evaluated in the following procedure. To a cocktail vaccine comprising Compound SEQ ID No. 1 prepared in Reference example 1 and Peptide SEQ ID No. 4 prepared in Reference example 4 with a preliminarily-emulsified composition (hereinafter, referred to as “vaccine d”) was added the compound prepared in Example 3 to prepare a vaccine. The vaccine was administered to a HLA-A*02:01/HLA-DRB1*01:01 transgenic mouse (C57BL/6CrHLA-A2.1DR1), and the adjuvant activity of the vaccine was evaluated by the method of testing antigen-specific helper T-cell induction. Peptide SEQ ID No. 4 is a helper peptide derived from HLA-DRB1*01:01-restricted WT1 protein.
Specifically, Peptide SEQ ID No. 1 and Peptide SEQ ID No. 4 were dissolved in DMSO, and then diluted with water for injection to concentrations of Peptide SEQ ID No. 1 of 0.9 mg/mL and Peptide SEQ ID No. 4 of 1.8 mg/mL. The diluted peptide solution was mixed and emulsified with an equal volume of a preliminarily-emulsified composition to prepare vaccine d. Vaccine d was injected to mice intradermally at the tail base area in an amount for administering 180 μg of Peptide SEQ ID No. 1 per body and 360 μg of Peptide SEQ ID No. 4 per body. […] Then, after removal of the supernatant from the wells, stained spots on the ELISPOT plate were counted.

Compound	CTLs specific to Peptide (SEQ ID No. 1) in splenocyte, relative to vaccine b without compound (Antigen-Specific CTL; IFN-γ ELISPOT, 325 ng per body in vaccine b, one week later)	amount of IFN-γ produced from the CTL, relative to vaccine b without compound (Antigen-Specific CTL; about three days culture with LLC-HHD-WT1 tumor cells and Peptide SEQ ID No. 1, ELISA, average of 3 wells)	induction of antigen peptide-specific effector memory CTL (CD8+ tetramer+ CD127+ CD62L-) [1]	induction of peptide-specific effector memory CTL (CD8+ tetramer+ CD127+ CD62L-) ([1]; 32.5 ng per body in vaccine a compared with vaccine a)	T-cell counts responsive to Peptide SEQ ID No. 4 (helper T-cell) [2]
CCCCOc1nc(N)c2[nH]c(=O)n(Cc3ccc(CN(C)CCOCCOCCOCCOCCO)nc3)c2n1 [Example 2, 6-amino-2-butoxy-9-{[6-(16-hydroxy-2-methyl-5,8,11,14-tetraoxa-2-azahexadecan-1-yl)pyridin-3-yl]methyl}-7,9-dihydro-8H-purin-8-one-trifluoroacetate]	1.8 times	8.7 times	high frequency	–	–
CCCCOc1nc(N)c2[nH]c(=O)n(Cc3ccc(CN(C)CCOCCOCCOCCOCCO)cc3)c2n1 [Example 3, 6-amino-2-butoxy-9-{[4-(16-hydroxy-2-methyl-5,8,11,14-tetraoxa-2-azahexadecan-1-yl)phenyl]methyl}-7,9-dihydro-8H-purin-8-one]	–	–	high frequency	high frequency	more
